{"source": "patent US20060270631A1", "about": "“Methods for the treatment and prevention of angiogenic diseases” (priority 2005, published 2006)", "key": {"human RECs [1]": {"test_system": "human RECs", "assay": "Matrigel microvessel (tube) formation by human RECs", "type": "cell-based", "conditions": "control and VEGF-treated (50 ng/mL) cultures, 18 hours", "protocol": "Since VEGF-mediated angiogenesis and vascular leakage are critical processes in the pathology of diabetic retinopathy, we evaluated the effects of Compound II on the VEGF-induced formation of microvessels by human RECs. The basement membrane-like substrate, Matrigel (Becton-Dickinson, Franklin Lakes, N.J.), was used to induce vessel-like tube formation from human RECs as in previous studies with other cell types (Lee et al., Cancer Lett 208: 89 (2004)). Briefly, 300 μL of Matrigel was pipetted into 24 well plates and allowed to gel at 37° C. for 30 minutes. Human RECs were briefly trypsinized and plated onto the layer of Matrigel at an approximate density of 25,000 cells/cm^2. VEGF (50 ng/mL in PBS) with either DMSO or an SK inhibitor was added to the media immediately. After 18 hours at 37° C., images were digitally captured with a Retiga Ex camera with bright-field microscopy using a Nikon Eclipse TE300 microscope."}, "[2]": {"test_system": "VEGF-induced vascular permeability", "assay": "VEGF-induced vascular leakage (Miles assay) in nude mice", "type": "in vivo, mouse", "conditions": "100 mg/kg intraperitoneal, FIG. 7A"}, "human RECs [3]": {"test_system": "human RECs", "assay": "Cytotoxicity assay (sulforhodamine) toward human RECs", "type": "cell-based", "conditions": "12 or 14 hours, serum-starved human RECs", "protocol": "FIG. 4. Toxicity of Compound II toward HRECs. Human RECs were serum-starved for 24 hours and then left untreated for 12 hours (▪) or incubated with 50 ng/mL VEGF (▴) for 14 hours in the presence of the indicated concentration of Compound II. These protocols were chosen to exactly match conditions in SK activity and proliferation experiments described below. After incubation, the percentages of cells that survived the treatment were determined. Values represent the mean i SD cell survival in triplicate samples in a typical experiment.\nCytotoxicity assays. Cells were grown to confluence in 96-well tissue culture plates and serum-starved for 24 hours as described above. Cells were then treated with varying concentrations of Compound II for 12 hours (to parallel the SK activity assays described above) or with varying concentrations of Compound II and 50 ng/mL of VEGF for 14 hours (to parallel the proliferation assays described below). Cell survival was determined using the sulforhodamine assay (Skehan et al., J Natl Cancer Inst 82: 1107 (1990)).\nSince Compound II was the most efficacious inhibitor of SK in the RECs, this compound was used to characterize the biological effects of inhibiting SK in these cells. It was first necessary to determine the toxic effects of this compound toward cultures of RECs under conditions identical to subsequent signal studies. […]"}, "human RECs [4]": {"test_system": "human RECs", "assay": "VEGF-stimulated proliferation of human RECs ([3H]thymidine incorporation)", "type": "cell-based", "conditions": "VEGF 50 ng/mL, 12 hours + 2 hours [3H]thymidine, serum-starved human RECs", "protocol": "FIG. 6. Effects of Compound II on VEGF-stimulated proliferation of RECs. Human RECs were serum-starved for 24 hours and then left untreated or incubated with VEGF (50 ng/mL) in the presence of the indicated concentration (in μM) of Compound II for 12 hours. [3H]Thymidine was then added and the cultures were incubated an additional 2 hours. The amount of [^3H]thymidine incorporated into DNA was determined. Values represent the mean±SD of duplicate samples in a typical experiment.\nCell proliferation assay. Cells were grown to confluence in 24-well tissue culture plates and serum-starved overnight as described above. Cells were then treated with 50 ng/mL of VEGF and varying concentrations of Compound II for 12 hours. At that time, 16 μCi of [3H]thymidine was added to each well, and the cultures were incubated for an additional 2 hours. The media was then removed by aspiration, the cells were washed twice with cold PBS, and 0.8 mL of ice-cold 10% trichloroacetic acid was added to each well. […] The samples were incubated at 37° C. for 30 minutes, scraped into scintillation vials, and the amount of ^3H in the recovered genomic DNA was quantified by scintillation counting.\nWe next evaluated the effects of VEGF on the proliferation of human RECs by measuring the effects of the growth factor of the incorporation of [^3H]thymidine into the DNA of serum-starved cells. […]"}}}
{"smiles": "Oc1ccc(Nc2nc(-c3ccc(Cl)cc3)cs2)cc1", "note": "[Compound II]", "values": [{"measurement": "formation of networks and tubes", "setting": "human RECs [1]", "value": "marked reduction"}, {"measurement": "inhibition of the in vivo vascular leakage response to VEGF", "setting": "[2]", "value": "more than 80%"}, {"measurement": "cell kill", "setting": "human RECs [3]; concentrations up to approximately 16 μM", "value": "< 10", "unit": "%"}, {"measurement": "cell kill", "setting": "human RECs [3]; concentrations up to at least 65 μM", "value": "less than 25%"}, {"measurement": "concentration blocking the mitogenic response to VEGF", "setting": "human RECs [4]", "value": "≥ 1.3", "unit": "µM"}]}
